Measured values as given in US20160228575A1, “NARINGENIN COMPLEXES AND METHODS OF USE THEREOF” (THE GENERAL HOSPITAL CORPORATION, priority 2008, published 2016).

Columns and labels:
HMGR = HMGR transcription by qPCR in infected Huh7.5.1 cells; assay type: cell-based, human; conditions: naringenin 24 hours, infected Huh-7.5.1 cells
[1] = guinea pigs, intraperitoneal injection; cited from earlier work
ApoB = ApoB secretion by JFH-1 infected Huh-7.5.1 cells (human ApoB ELISA); assay type: cell-based; conditions: 24 hours, brefeldin A 2.5 μg/ml
Procedure: HCV-infected Huh-7.5.1 cells were plated on a 6-well plate at a density of 1×10^5 cells/cm^2 and cultured overnight in standard medium. Prior to the beginning of the experiment, the cells were washed 3 times with PBS and cultured with DMEM containing 5% lipoprotein-free FBS. Oleate, Insulin, Naringenin, and Brefeldin A were added at this time as described in the text. Following 24 hours of incubation, the plate was gently agitated to release mechanically bound particles, the media was collected, filtered to remove cellular debris, and stored at −80° C. for further analysis. The attached cells were washed 3 times with PBS, harvested, pelleted and stored at −80° C. for further analysis.
Huh-7.5.1 and primary human hepatocytes secreted ApoB was detected in the media using ALerCHEK, Inc (Portland, Me.) total human ApoB ELISA kit. Media was diluted 1:10 with the specimen diluent, and the assay was carried out according to manufacturer's directions.
HCV-infected Huh-7.5.1 cells were plated T-25 tissue culture flasks at a density of 1×10^5 cells/cm^2 and cultured overnight in standard medium. Prior to silencing, the cells were washed 3 times with PBS and media was replaced with OptiMEM basal medium. SureSilencing shRNA (GFP) plasmids against human ApoB100 as well as shRNA plasmid control (500 ng/ml) were combined with lipofectamine 2000 in OptiMEM and incubated with the cells overnight. SureSilencing shRNA plasmids code for GFP which was used to sort the transfected Huh7.5.1 cells, using FACSAria (BD Biosciences) located at the Partners AIDS Research Center. Transfected cells (10% of the total population) were sorted directly into a 12-well plate and allowed to adhere overnight. Culture media was conditioned by the transfected cells for 24 hours and analyzed as described above.

SMILES: O=C1C[C@@H](c2ccc(O)cc2)Oc2cc(O)cc(O)c21 [naringenin]
- reduction of HMGR transcription (HMGR): 57%±3%
- LD50 (50% kill) [1]: 2000 mg/kg
- ApoB secretion (in words) (ApoB): Inhibition
